Experimental data published in patent US20150139957A1, “GROWTH ENHANCING ADDITIVE FROM POMEGRANATE PLANT FOR POULTRY FEED” (GANIR (1992) LTD., priority 2012, published 2015).

Assays:
[1] = tested on: Ross male broilers; assay: Example 1: 42 d broiler trial, antibiotic in the feed present, absent or replaced; format: in vivo; settings: PE1 4 kg per ton feed
Experimental: The effects of presence/absence/replacement of the antibiotics in the feed were examined. A group of 2000 Ross male broilers were randomly divided into four treatments and fed a mesh diet ad libitum. […] Body weight, feed intake and mortality were measured during the 42 d broiler trial. At the end of the trial, feed conversion was calculated and % cumulative mortality was recorded. Results indicated a 4.1% improved feed conversion in those birds which received an antibiotic growth promoter (Maxus™), compared to negative control (1.758 and 1.834 respectively). The addition of pomegranate extract powder improved feed conversion by 4.9% as compared to negative control treatment (1.744 and 1.834 respectively). Mortality results at end of trial were as follows: negative control 4.1%, antibiotic growth promoter 3.6% and pomegranate extract powder 1.4%.

[2] = tested on: Ross male broilers; assay: Example 2: broiler trial testing the efficacy of a taste masking agent; format: in vivo; settings: alternative probiotic growth additive, treatment 5
Description: The objective of this trial was to test the efficacy of a taste masking agent. The trial examined the performance parameters in 2000 Ross male broilers randomly divided into 5 treatment groups. All broilers were fed mash feed ad libitum. Treatment 1, negative control, without addition of any growth promoter in feed, treatment 2, positive control with an antibiotic growth promoter avilamycin (Maxus™), treatment 3 received 2 kg additive PE1 of the invention per ton feed, treatment 4 received 2 kg additive PE1 of the invention per ton feed with a taste masking agent including thaumatin, and treatment 5 received an alternative probiotic growth additive (lactobacillus). Use of the masking agents improved broiler body weight results from 28-44 d period by 4.2% (1480 g vs 1420 g). Final body weight results at 44 d was improved by 3.6% in those broilers that received the masking agent as compared to those without. (2748 vs 2652). Feed conversion improved by 5.4% in those broilers receiving masking agent (1.84 instead of 1.94 kg/kg).

Row | Molecule | cumulative mortality at end of trial ([1]; 42 d trial, negative control 4.1%) [%] | improved feed conversion compared to negative control ([1]; end of 42 d trial, diet ad libitum) [%] | feed conversion ([1]; end of 42 d trial, negative control 1.834) | body weight throughout the trial versus both pomegranate extract groups [2]
1 | COC[C@H]1O[C@@H](OC2OC[C@@H]3O[C@]4(O[C@H]3[C@H]2OC(=O)C(C)C)O[C@H](C)[C@@](O)(C(C)=O)[C@@H]2OCO[C@H]24)[C@@H](OC)[C@@H](O)[C@@H]1O[C@@H]1O[C@H](C)[C@H](OC)[C@H](O[C@H]2C[C@@]3(C)OC4(C[C@@H](O)[C@H](O[C@H]5C[C@@H](O)[C@H](OC(=O)c6c(C)c(Cl)c(O)c(Cl)c6OC)[C@@H](C)O5)[C@@H](C)O4)O[C@@H]3[C@@H](C)O2)[C@H]1O (stereo partly shown) [avilamycin] | 3.6 | 4.1 | 1.758 | –
2 | lactobacillus | – | – | – | consistently lower
